Source: ChEMBL document CHEMBL3400015, “Tertiary amides of Salinomycin: A new group of antibacterial agents against Bacillus anthracis and methicillin-resistant Staphylococcus epidermidis” (Bioorg Med Chem Lett, 2015)

What was measured:
Staphylococcus aureus [1] = assay: Antimicrobial activity against Staphylococcus aureus NCTC 4163 after 18 hrs by twofold serial broth dilution method; assay type: functional; conditions: NCTC 4163, 18 h
[2] = tested on: Staphylococcus epidermidis; assay: Bactericidal activity against methicillin-resistant Staphylococcus epidermidis isolate 454/11 after 24 hrs; assay type: functional; conditions: isolate 454/11, 24 h, read-out: MBC99.9
[3] = tested on: Staphylococcus epidermidis; assay: Bactericidal activity against methicillin-resistant Staphylococcus epidermidis isolate 404/10 after 24 hrs; assay type: functional; conditions: isolate 404/10, 24 h, read-out: MBC99.9
[4] = tested on: Staphylococcus epidermidis; assay: Bactericidal activity against methicillin-resistant Staphylococcus epidermidis isolate 461/11 after 24 hrs; assay type: functional; conditions: isolate 461/11, 24 h, read-out: MBC99.9
Pseudomonas aeruginosa [5] = assay: Antimicrobial activity against Pseudomonas aeruginosa ATCC 15442 after 18 hrs by twofold serial broth dilution method; assay type: functional; conditions: ATCC 15442, 18 h
[6] = tested on: Staphylococcus epidermidis; assay: Bactericidal activity against methicillin-resistant Staphylococcus epidermidis isolate 422/10 after 24 hrs; assay type: functional; conditions: isolate 422/10, 24 h, read-out: MBC99.9
Pseudomonas aeruginosa [7] = assay: Antimicrobial activity against Pseudomonas aeruginosa ATCC 27853 after 18 hrs by twofold serial broth dilution method; assay type: functional; conditions: ATCC 27853, 18 h
Escherichia coli [8] = assay: Bactericidal activity against Escherichia coli ATCC 10538 after 24 hrs; assay type: functional; conditions: ATCC 10538, 24 h, read-out: MBC99.9
[9] = tested on: Staphylococcus epidermidis; assay: Antimicrobial activity against methicillin-resistant Staphylococcus epidermidis isolate 469/11 after 18 hrs by twofold serial broth dilution method; assay type: functional; conditions: isolate 469/11, 18 h
Escherichia coli [10] = assay: Antimicrobial activity against Escherichia coli ATCC 25922 after 18 hrs by twofold serial broth dilution method; assay type: functional; conditions: ATCC 25922, 18 h
[11] = tested on: Staphylococcus epidermidis; assay: Antimicrobial activity against methicillin-resistant Staphylococcus epidermidis isolate 454/11 after 18 hrs by twofold serial broth dilution method; assay type: functional; conditions: isolate 454/11, 18 h
[12] = tested on: Staphylococcus epidermidis; assay: Antimicrobial activity against methicillin-resistant Staphylococcus epidermidis isolate 422/10 after 18 hrs by twofold serial broth dilution method; assay type: functional; conditions: isolate 422/10, 18 h
Escherichia coli [13] = assay: Bactericidal activity against Escherichia coli ATCC 25922 after 24 hrs; assay type: functional; conditions: ATCC 25922, 24 h, read-out: MBC99.9
Staphylococcus aureus [14] = assay: Bactericidal activity against Staphylococcus aureus […] after 24 hrs; assay type: functional; conditions: read-out: MBC99.9
[15] = tested on: Staphylococcus epidermidis; assay: Antimicrobial activity against methicillin-resistant Staphylococcus epidermidis isolate 470/11 after 18 hrs by twofold serial broth dilution method; assay type: functional; conditions: isolate 470/11, 18 h
[16] = tested on: Staphylococcus epidermidis; assay: Bactericidal activity against methicillin-resistant Staphylococcus epidermidis isolate 460/11 after 24 hrs; assay type: functional; conditions: isolate 460/11, 24 h, read-out: MBC99.9
[17] = tested on: Staphylococcus epidermidis; assay: Antimicrobial activity against Staphylococcus epidermidis ATCC 35984 after 18 hrs by twofold serial broth dilution method; assay type: functional; conditions: ATCC 35984, 18 h
[18] = tested on: Staphylococcus epidermidis; assay: Antimicrobial activity against Staphylococcus epidermidis ATCC 12228 after 18 hrs by twofold serial broth dilution method; assay type: functional; conditions: ATCC 12228, 18 h
[19] = tested on: Staphylococcus epidermidis; assay: Bactericidal activity against methicillin-resistant Staphylococcus epidermidis isolate 469/11 after 24 hrs; assay type: functional; conditions: isolate 469/11, 24 h, read-out: MBC99.9
Bacillus subtilis [20] = assay: Genotoxicity in rec-negative Bacillus subtilis M45 at 2 ug/9 mm disc after 24 hrs by disc diffusion method; assay type: toxicity, organism-based
[21] = tested on: Staphylococcus epidermidis; assay: Antimicrobial activity against methicillin-resistant Staphylococcus epidermidis isolate 457/11 after 18 hrs by twofold serial broth dilution method; assay type: functional; conditions: isolate 457/11, 18 h
[22] = tested on: Staphylococcus epidermidis; assay: Antimicrobial activity against methicillin-resistant Staphylococcus epidermidis isolate 409/10 after 18 hrs by twofold serial broth dilution method; assay type: functional; conditions: isolate 409/10, 18 h
Bacillus subtilis [23] = assay: Genotoxicity in rec-positive Bacillus subtilis H17 at 2 ug/9 mm disc after 24 hrs by disc diffusion method; assay type: toxicity, organism-based
Bacillus anthracis = assay: Antimicrobial activity against Bacillus anthracis 34F2 after 18 hrs by twofold serial broth dilution method; assay type: functional; conditions: 34F2, 18 h
[24] = tested on: Staphylococcus epidermidis; assay: Antimicrobial activity against methicillin-resistant Staphylococcus epidermidis isolate 455/11 after 18 hrs by twofold serial broth dilution method; assay type: functional; conditions: isolate 455/11, 18 h
[25] = tested on: Staphylococcus epidermidis; assay: Bactericidal activity against methicillin-resistant Staphylococcus epidermidis isolate 457/11 after 24 hrs; assay type: functional; conditions: isolate 457/11, 24 h, read-out: MBC99.9
Staphylococcus aureus [26] = assay: Bactericidal activity against Staphylococcus aureus ATCC 25923 after 24 hrs; assay type: functional; conditions: ATCC 25923, 24 h, read-out: MBC99.9
Staphylococcus aureus [27] = assay: Antimicrobial activity against Staphylococcus aureus ATCC 25923 after 18 hrs by twofold serial broth dilution method; assay type: functional; conditions: ATCC 25923, 18 h
Pseudomonas aeruginosa [28] = assay: Bactericidal activity against Pseudomonas aeruginosa ATCC 27853 after 24 hrs; assay type: functional; conditions: ATCC 27853, 24 h, read-out: MBC99.9
[29] = tested on: Staphylococcus epidermidis; assay: Bactericidal activity against Staphylococcus epidermidis ATCC 35984 after 24 hrs; assay type: functional; conditions: ATCC 35984, 24 h, read-out: MBC99.9
[30] = tested on: Staphylococcus epidermidis; assay: Bactericidal activity against methicillin-resistant Staphylococcus epidermidis isolate 403/10 after 24 hrs; assay type: functional; conditions: isolate 403/10, 24 h, read-out: MBC99.9
[31] = tested on: Staphylococcus epidermidis; assay: Antimicrobial activity against methicillin-resistant Staphylococcus epidermidis isolate 458/11 after 18 hrs by twofold serial broth dilution method; assay type: functional; conditions: isolate 458/11, 18 h
Staphylococcus aureus [32] = assay: Antimicrobial activity against Staphylococcus aureus ATCC 6538 after 18 hrs by twofold serial broth dilution method; assay type: functional; conditions: ATCC 6538, 18 h
[33] = tested on: Staphylococcus epidermidis; assay: Antimicrobial activity against methicillin-resistant Staphylococcus epidermidis isolate 407/10 after 18 hrs by twofold serial broth dilution method; assay type: functional; conditions: isolate 407/10, 18 h
Staphylococcus aureus [34] = assay: Bactericidal activity against Staphylococcus aureus NCTC 4163 after 24 hrs; assay type: functional; conditions: NCTC 4163, 24 h, read-out: MBC99.9
[35] = tested on: Staphylococcus epidermidis; assay: Antimicrobial activity against methicillin-resistant Staphylococcus epidermidis isolate 404/10 after 18 hrs by twofold serial broth dilution method; assay type: functional; conditions: isolate 404/10, 18 h
Pseudomonas aeruginosa [36] = assay: Antimicrobial activity against Pseudomonas aeruginosa NCTC 6749 after 18 hrs by twofold serial broth dilution method; assay type: functional; conditions: NCTC 6749, 18 h
Escherichia coli [37] = assay: Antimicrobial activity against Escherichia coli NCTC 8196 after 18 hrs by twofold serial broth dilution method; assay type: functional; conditions: NCTC 8196, 18 h
[38] = tested on: Staphylococcus epidermidis; assay: Bactericidal activity against methicillin-resistant Staphylococcus epidermidis isolate 470/11 after 24 hrs; assay type: functional; conditions: isolate 470/11, 24 h, read-out: MBC99.9
[39] = tested on: Staphylococcus epidermidis; assay: Bactericidal activity against methicillin-resistant Staphylococcus epidermidis isolate 458/11 after 24 hrs; assay type: functional; conditions: isolate 458/11, 24 h, read-out: MBC99.9
Staphylococcus aureus [40] = assay: Antimicrobial activity against Staphylococcus aureus […] after 18 hrs by twofold serial broth dilution method; assay type: functional
Escherichia coli [41] = assay: Bactericidal activity against Escherichia coli NCTC 8196 after 24 hrs; assay type: functional; conditions: NCTC 8196, 24 h, read-out: MBC99.9
Pseudomonas aeruginosa [42] = assay: Bactericidal activity against Pseudomonas aeruginosa ATCC 15442 after 24 hrs; assay type: functional; conditions: ATCC 15442, 24 h, read-out: MBC99.9
[43] = tested on: Staphylococcus epidermidis; assay: Antimicrobial activity against methicillin-resistant Staphylococcus epidermidis isolate 424/10 after 18 hrs by twofold serial broth dilution method; assay type: functional; conditions: isolate 424/10, 18 h

CC[C@@H](C(=O)[C@@H](C)[C@@H](O)[C@H](C)[C@@H]1O[C@@H]([C@@H](CC)C(=O)N(CCOC)CCOC)CC[C@@H]1C)[C@H]1O[C@]2(C=C[C@@H](O)[C@]3(CC[C@@](C)([C@H]4CC[C@](O)(CC)[C@H](C)O4)O3)O2)[C@H](C)C[C@@H]1C
> 256 µg/mL: MBC [2] | MBC [3] | MBC [4] | MIC (Pseudomonas aeruginosa [5]) | MBC [6] | MIC (Pseudomonas aeruginosa [7]) | MBC (Escherichia coli [8]) | MIC (Escherichia coli [10]) | MBC (Escherichia coli [13]) | MBC (Staphylococcus aureus [14]) | MBC [16] | MBC [19] | MBC [25] | MBC (Staphylococcus aureus [26]) | MBC (Pseudomonas aeruginosa [28]) | MBC [29] | MBC [30] | MBC (Staphylococcus aureus [34]) | MIC (Pseudomonas aeruginosa [36]) | MIC (Escherichia coli [37]) | MBC [38] | MBC [39] | MBC (Escherichia coli [41]) | MBC (Pseudomonas aeruginosa [42])
128 µg/mL: MIC [9] | MIC [12] | MIC [17] | MIC [18] | MIC [21] | MIC [22] | MIC [24] | MIC [33] | MIC [35] | MIC (Staphylococcus aureus [40])
14 mm: diameter of the inhibition zone (DIZ) (Bacillus subtilis [20])
64 µg/mL: MIC (Staphylococcus aureus [1]) | MIC [11] | MIC (Staphylococcus aureus [27]) | MIC [31] | MIC (Staphylococcus aureus [32])
512 µg/mL: MIC (Bacillus anthracis)
256 µg/mL: MIC [15] | MIC [43]
13 mm: diameter of the inhibition zone (DIZ) (Bacillus subtilis [23])

CCCCN(CCCC)C(=O)[C@H](CC)[C@H]1CC[C@H](C)[C@H]([C@@H](C)[C@H](O)[C@H](C)C(=O)[C@H](CC)[C@H]2O[C@]3(C=C[C@@H](O)[C@]4(CC[C@@](C)([C@H]5CC[C@](O)(CC)[C@H](C)O5)O4)O3)[C@H](C)C[C@@H]2C)O1
64 µg/mL: MIC (Bacillus anthracis)
4 µg/mL: MIC [11] | MIC [21] | MIC [31]
16 µg/mL: MIC [22] | MIC [24]
30 mm: diameter of the inhibition zone (DIZ) (Bacillus subtilis [20])
256 µg/mL: MBC [6] | MBC [25] | MBC (Staphylococcus aureus [26]) | MBC [30] | MBC [39]
> 256 µg/mL: MBC [3] | MBC [4] | MIC (Pseudomonas aeruginosa [5]) | MIC (Pseudomonas aeruginosa [7]) | MBC (Escherichia coli [8]) | MIC (Escherichia coli [10]) | MBC (Escherichia coli [13]) | MBC (Staphylococcus aureus [14]) | MBC [16] | MBC [19] | MBC (Pseudomonas aeruginosa [28]) | MBC [29] | MBC (Staphylococcus aureus [34]) | MIC (Pseudomonas aeruginosa [36]) | MIC (Escherichia coli [37]) | MBC [38] | MBC (Escherichia coli [41]) | MBC (Pseudomonas aeruginosa [42])
8 µg/mL: MIC (Staphylococcus aureus [1]) | MIC [9] | MIC [12] | MIC [15] | MIC [17] | MIC [18] | MIC (Staphylococcus aureus [27]) | MIC (Staphylococcus aureus [32]) | MIC [33] | MIC [35] | MIC (Staphylococcus aureus [40]) | MIC [43]
128 µg/mL: MBC [2]
29 mm: diameter of the inhibition zone (DIZ) (Bacillus subtilis [23])
